According to US7892780B2, “Method for screening antioxidant using mutant bacteria and chlorophyllide, and antioxidant screened by the method” (Industry-University Cooperation Foundation Sogang University, priority 2007, dated 2011):

Test system: Rhodobacter sphaeroides 2.4.1 SodB1 [KCTC 11069BP]
Assay: Antioxidant screening by growth of SodB1 mutant bacteria on chlorophyllide-added medium blocks or filter discs
Type: cell-based
Conditions: sample dissolved in ethanol or dimethylsulfoxide, FIG. 5
Protocol: Next, an antioxidant sample and SodB1 mutant bacteria were added to these medium blocks, or otherwise chlorophyllide (0.1 to 100 mM) was added directly to filter discs to which a desired concentration of an antioxidant candidate material was then added. Thereafter, multimeric protein-expressing SodB1 mutant bacteria, i.e. Rhodobacter sphaeroides 2.4.1 SodB1 [KCTC 11069BP], were plated on a Sistrom's minimal medium [20 mM potassium dihydrogen phosphate (KH2PO4), 3.8 mM ammonium sulfate ((NH4)2SO4), 34 mM succinic acid, 0.59 mM L-glutamic acid, 0.30 mM L-aspartic acid, 8.5 mM sodium chloride, 1.05 mM nitrilotriacetic acid, 1.2 mM magnesium chloride (MgCl2.6H2O), 0.23 mM calcium chloride (CaCl2.7H2O), 25 μM ferrous sulfate (FeSO4.7H2O), 0.16 μM ammonium molybdate ((NH4)6Mo7O24.4H2O), 4.7 μM EDTA, 38 μM zinc sulfate (ZnSO4.7H2O), 9.1 μM manganese sulfate (MnSO4.H2O), 1.6 μM copper sulfate (CuSO4.5H2O), 0.85 μM cobalt (II) nitrate (Co(NO3)2.6H2O), 1.8 μM boric acid (H3BO3), 8.1 μM nicotinic acid, 1.5 μM thiamine hydrochloride, and 41 nM biotin] (Sistrom, W. R, 1962. J. Gen. Microbiol. 28: 607-616).
As a result, when there was an antioxidant activity in the antioxidant candidate material to be screened, cells grew only on the medium blocks or around filter discs and thus red bacteria were observed. […]

| Molecule | cell growth of SodB1 mutant bacteria / prevention of cell death (antioxidant activity) |
| --- | --- |
| tocopherol | partial cell growth |
| O=c1c(O)c(-c2ccc(O)c(O)c2)oc2cc(O)cc(O)c12 [quercetin] | partial cell growth |
